Measurements reported in patent US8691865B2 (AbbVie Inc., priority 2008, dated 2014).

Biological target: human Cav2.2 (Homo sapiens, UniProt Q00975)
Experiment: Assessment of calcium channel activity using FLIPR (Ca2+ influx in IMR32 cells)
Format: cell-based
Settings: not given
How it was run: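 IC50 values derive from nonlinear sigmoidal fitting of percent inhibition, relative to inhibitor-free activity, of Ca2+ influx read by FLIPR. Cells were IMR32 human neuroblastoma, plated at 1−1.2×10^5 per well and grown 48 h at 37 °C.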

human Cav2.2, sequence (Q00975 whole entry): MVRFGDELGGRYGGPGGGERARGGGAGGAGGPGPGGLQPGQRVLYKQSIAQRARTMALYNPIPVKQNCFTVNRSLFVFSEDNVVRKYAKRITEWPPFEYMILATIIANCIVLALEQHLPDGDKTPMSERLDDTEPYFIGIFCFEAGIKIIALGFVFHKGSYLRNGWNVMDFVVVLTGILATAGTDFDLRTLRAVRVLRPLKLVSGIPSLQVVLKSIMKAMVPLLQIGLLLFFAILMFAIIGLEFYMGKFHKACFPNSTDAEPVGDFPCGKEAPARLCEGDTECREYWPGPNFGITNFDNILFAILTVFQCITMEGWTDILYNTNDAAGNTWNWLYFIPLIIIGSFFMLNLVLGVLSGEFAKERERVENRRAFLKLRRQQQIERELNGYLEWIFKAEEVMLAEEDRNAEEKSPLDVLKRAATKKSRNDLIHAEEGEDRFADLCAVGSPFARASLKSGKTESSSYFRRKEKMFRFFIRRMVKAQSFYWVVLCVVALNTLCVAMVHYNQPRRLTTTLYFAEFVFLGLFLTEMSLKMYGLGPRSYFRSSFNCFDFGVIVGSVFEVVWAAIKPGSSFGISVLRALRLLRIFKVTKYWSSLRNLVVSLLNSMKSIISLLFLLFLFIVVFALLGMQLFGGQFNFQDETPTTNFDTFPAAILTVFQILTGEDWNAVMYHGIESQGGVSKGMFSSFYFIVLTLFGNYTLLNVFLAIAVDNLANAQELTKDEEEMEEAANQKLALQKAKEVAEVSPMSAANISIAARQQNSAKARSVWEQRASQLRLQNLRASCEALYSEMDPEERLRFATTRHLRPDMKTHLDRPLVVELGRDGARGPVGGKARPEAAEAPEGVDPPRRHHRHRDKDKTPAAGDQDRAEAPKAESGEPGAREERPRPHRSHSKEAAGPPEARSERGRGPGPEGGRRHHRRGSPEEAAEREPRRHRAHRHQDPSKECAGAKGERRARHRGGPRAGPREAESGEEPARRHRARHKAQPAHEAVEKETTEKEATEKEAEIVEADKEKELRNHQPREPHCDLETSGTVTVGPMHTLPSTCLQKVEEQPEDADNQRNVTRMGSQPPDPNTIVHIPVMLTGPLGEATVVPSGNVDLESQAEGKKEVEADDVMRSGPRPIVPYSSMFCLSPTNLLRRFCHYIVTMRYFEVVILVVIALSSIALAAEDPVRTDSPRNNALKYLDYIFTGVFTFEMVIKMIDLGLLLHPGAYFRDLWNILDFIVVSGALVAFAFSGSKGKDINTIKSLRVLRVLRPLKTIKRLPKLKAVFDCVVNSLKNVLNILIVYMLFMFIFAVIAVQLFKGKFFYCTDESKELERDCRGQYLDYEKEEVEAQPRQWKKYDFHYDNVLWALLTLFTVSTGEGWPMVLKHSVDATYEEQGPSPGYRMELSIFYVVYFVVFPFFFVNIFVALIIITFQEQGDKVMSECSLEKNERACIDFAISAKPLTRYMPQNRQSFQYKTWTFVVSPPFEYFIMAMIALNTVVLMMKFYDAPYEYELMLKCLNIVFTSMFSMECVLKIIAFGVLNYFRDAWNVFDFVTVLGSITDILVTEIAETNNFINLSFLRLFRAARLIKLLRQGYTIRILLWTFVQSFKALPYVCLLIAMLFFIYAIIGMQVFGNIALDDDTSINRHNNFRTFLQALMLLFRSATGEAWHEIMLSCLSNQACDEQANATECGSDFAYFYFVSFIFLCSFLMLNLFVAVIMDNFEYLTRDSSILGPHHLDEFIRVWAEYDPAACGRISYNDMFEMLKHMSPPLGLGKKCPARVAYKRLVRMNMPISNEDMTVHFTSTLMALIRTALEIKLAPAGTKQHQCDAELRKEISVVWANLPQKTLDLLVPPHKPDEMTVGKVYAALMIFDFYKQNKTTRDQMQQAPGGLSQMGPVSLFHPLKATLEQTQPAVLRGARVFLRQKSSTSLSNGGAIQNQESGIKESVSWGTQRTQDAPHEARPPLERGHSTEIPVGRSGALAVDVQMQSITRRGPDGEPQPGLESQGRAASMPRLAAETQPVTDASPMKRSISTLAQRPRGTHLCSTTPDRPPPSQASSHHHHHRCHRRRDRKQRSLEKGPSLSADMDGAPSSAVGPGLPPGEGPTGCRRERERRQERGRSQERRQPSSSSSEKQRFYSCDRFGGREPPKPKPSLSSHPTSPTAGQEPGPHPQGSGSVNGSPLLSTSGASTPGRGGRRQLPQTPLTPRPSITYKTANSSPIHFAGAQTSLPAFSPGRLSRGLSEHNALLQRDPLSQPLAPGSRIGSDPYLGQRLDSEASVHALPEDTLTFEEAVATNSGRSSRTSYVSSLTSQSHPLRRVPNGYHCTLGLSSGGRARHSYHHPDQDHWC
human Cav2.2, sequence (P54289 25-956 partner limits assumed): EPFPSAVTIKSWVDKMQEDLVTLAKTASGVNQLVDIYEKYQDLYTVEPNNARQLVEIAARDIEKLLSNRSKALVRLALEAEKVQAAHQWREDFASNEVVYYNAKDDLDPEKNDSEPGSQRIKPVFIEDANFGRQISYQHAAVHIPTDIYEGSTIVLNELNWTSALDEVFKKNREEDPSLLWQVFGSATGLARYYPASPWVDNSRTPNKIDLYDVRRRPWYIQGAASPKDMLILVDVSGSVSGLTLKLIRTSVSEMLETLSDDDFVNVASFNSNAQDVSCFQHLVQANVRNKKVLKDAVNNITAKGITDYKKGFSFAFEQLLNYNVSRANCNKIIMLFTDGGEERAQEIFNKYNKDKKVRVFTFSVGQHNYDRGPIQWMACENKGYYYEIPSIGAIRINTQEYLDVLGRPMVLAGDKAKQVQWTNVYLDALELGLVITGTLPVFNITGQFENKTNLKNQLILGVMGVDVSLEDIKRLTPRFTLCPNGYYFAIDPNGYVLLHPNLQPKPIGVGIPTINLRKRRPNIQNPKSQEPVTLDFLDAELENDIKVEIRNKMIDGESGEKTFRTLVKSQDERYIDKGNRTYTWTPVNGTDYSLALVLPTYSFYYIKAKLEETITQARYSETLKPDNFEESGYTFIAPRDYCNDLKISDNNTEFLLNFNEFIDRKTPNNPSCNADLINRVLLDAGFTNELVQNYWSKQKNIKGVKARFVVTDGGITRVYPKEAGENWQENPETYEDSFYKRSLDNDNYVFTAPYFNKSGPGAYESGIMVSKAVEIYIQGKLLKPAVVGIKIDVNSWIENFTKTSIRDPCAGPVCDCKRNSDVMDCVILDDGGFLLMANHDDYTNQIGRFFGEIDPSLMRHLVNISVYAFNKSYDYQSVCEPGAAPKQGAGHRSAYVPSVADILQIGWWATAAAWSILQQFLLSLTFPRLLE
human Cav2.2, sequence (P54289 957-1103 partner limits assumed): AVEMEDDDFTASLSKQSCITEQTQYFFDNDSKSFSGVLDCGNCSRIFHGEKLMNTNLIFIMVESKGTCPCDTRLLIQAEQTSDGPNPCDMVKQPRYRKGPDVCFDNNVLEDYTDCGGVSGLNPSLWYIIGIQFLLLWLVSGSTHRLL
human Cav2.2, sequence (P54284 whole entry partner): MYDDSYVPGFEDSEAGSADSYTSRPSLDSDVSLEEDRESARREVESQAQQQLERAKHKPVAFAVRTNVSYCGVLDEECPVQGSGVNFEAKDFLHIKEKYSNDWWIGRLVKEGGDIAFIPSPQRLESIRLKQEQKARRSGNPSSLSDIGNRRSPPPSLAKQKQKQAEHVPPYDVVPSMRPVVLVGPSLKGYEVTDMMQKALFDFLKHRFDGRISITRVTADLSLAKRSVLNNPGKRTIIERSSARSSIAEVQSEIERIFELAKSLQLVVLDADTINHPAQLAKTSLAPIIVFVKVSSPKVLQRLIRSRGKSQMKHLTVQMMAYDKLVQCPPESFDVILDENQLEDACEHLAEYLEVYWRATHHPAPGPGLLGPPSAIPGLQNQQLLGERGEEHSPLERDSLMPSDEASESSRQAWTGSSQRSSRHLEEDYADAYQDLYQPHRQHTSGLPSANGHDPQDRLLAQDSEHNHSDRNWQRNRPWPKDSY

Row | Structure (SMILES) | IC50
1 | O=C(N[C@H]1CC[C@@H]2CN(c3cccc(C(F)(F)F)n3)C[C@@H]21)c1ccc(F)c(Cl)c1 [Example 566, 3-chloro-4-fluoro-N-{(3aR,4S,6aS)-2-[6-(trifluoromethyl)pyridin-2-yl]octahydrocyclopenta[c]pyrrol-4-yl}benzamide] | 0.81 µM
2 | FC(F)(F)c1cccc(N2C[C@H]3CC[C@H](NCc4cccc5nsnc45)[C@H]3C2)n1 [Example 728, (3aR,4S,6aS)-N-(2,1,3-benzothiadiazol-4-ylmethyl)-2-[6-(trifluoromethyl)pyridin-2-yl]octahydrocyclopenta[c]pyrrol-4-amine] | 0.48 µM
3 | FC(F)(F)c1cccc(N2C[C@H]3CC[C@H](NCc4cc5ccccc5[nH]4)[C@H]3C2)n1 [Example 612, (3aR,4S,6aS)-N-(1H-indol-2-ylmethyl)-2-[6-(trifluoromethyl)pyridin-2-yl]octahydrocyclopenta[c]pyrrol-4-amine] | 2.24 µM
4 | CN[C@H](C(=O)N[C@H]1CC[C@@H]2CN(c3cccc(OC(F)(F)F)c3)C[C@@H]21)C(C)C [Example 758, N^2-methyl-N-{(3aR,4S,6aS)-2-[3-(trifluoromethoxy)phenyl]octahydrocyclopenta[c]pyrrol-4-yl}-L-valinamide] | 1.42 µM
5 | N#Cc1cccc(N2C[C@H]3CC[C@H](NC(=O)[C@@H]4C[C@@H](F)CN4)[C@H]3C2)c1 [Example 632, (4R)-N-[(3aR,4S,6aS)-2-(3-cyanophenyl)octahydrocyclopenta[c]pyrrol-4-yl]-4-fluoro-L-prolinamide] | 18.9 µM
6 | CCCC[C@H](NC)C(=O)N[C@H]1CC[C@@H]2CN(c3cccc(C(F)(F)F)n3)C[C@@H]21 [Example 589, N^2-methyl-N-{(3aR,4S,6aS)-2-[6-(trifluoromethyl)pyridin-2-yl]octahydrocyclopenta[c]pyrrol-4-yl}-L-norleucinamide] | 0.32 µM
7 | O=C(N[C@H]1CC[C@@H]2CN(c3cccc(C(F)(F)F)n3)C[C@@H]21)c1ccc(-c2cccs2)o1 [Example 571, 5-(2-thienyl)-N-{(3aR,4S,6aS)-2-[6-(trifluoromethyl)pyridin-2-yl]octahydrocyclopenta[c]pyrrol-4-yl}-2-furamide] | 1.11 µM
8 | O=C(N[C@H]1CC[C@@H]2CN(c3csc(C(F)F)c3)C[C@@H]21)[C@@H]1C[C@@H](F)CN1 [Example 655, (4R)-N-{(3aR,4S,6aS)-2-[5-(difluoromethyl)-3-thienyl]octahydrocyclopenta[c]pyrrol-4-yl}-4-fluoro-L-prolinamide] | 19.6 µM

Other lines, results leading:

Row | IC50 | Structure (SMILES)
9 | 6.78 µM | CNC(C)(C)C(=O)N[C@H]1CC[C@@H]2CN(c3ccc(C(F)(F)F)cc3)C[C@@H]21 [Example 754, N^2,2-dimethyl-N-{(3aR,4S,6aS)-2-[4-(trifluoromethyl)phenyl]octahydrocyclopenta[c]pyrrol-4-yl}alaninamide]
10 | 2.32 µM | CN[C@H](CC(C)C)C(=O)N[C@H]1CC[C@@H]2CN(c3ccc(C(F)(F)F)cc3)C[C@@H]21 [Example 760, N^2-methyl-N-{(3aR,4S,6aS)-2-[4-(trifluoromethyl)phenyl]octahydrocyclopenta[c]pyrrol-4-yl}-D-leucinamide]
11 | 5.7 µM | CCC[C@H](NC)C(=O)N(C)[C@H]1CC[C@@H]2CN(S(=O)(=O)c3ccc(C(F)(F)F)cc3)C[C@@H]21 [Example 438, N^1,N^2-dimethyl-N^1-((3aR,4S,6aS)-2-{[4-(trifluoromethyl)phenyl]sulfonyl}octahydrocyclopenta[c]pyrrol-4-yl)-L-norvalinamide]
12 | > 16.4 µM | CCC[C@H](NC(=O)OC(C)C)C(=O)N[C@H]1CC[C@@H]2CN(S(=O)(=O)c3ccc(C(F)(F)F)cc3)C[C@@H]21 [Example 279, isopropyl(S)-1-oxo-1-((3aR,4S,6aS)-2-(4-(trifluoromethyl)phenylsulfonyl)octahydrocyclopenta[c]pyrrol-4-ylamino)pentan-2-ylcarbamate]

Same assay, conditions: read-out: IC50 (μM) or percent inhibition (* indicates 3 minute incubation, otherwise 60 minute); IC50; 60 minute pre-incubation with compound; IMR32 cells, 80 mM KCl depolarization

Row | Structure (SMILES) | IC50
13 | O=S(=O)(c1ccc(C(F)(F)F)cc1Cl)N1C[C@H]2CC[C@H](Nc3ccc(C(F)(F)F)cn3)[C@H]2C1 [Example 295, (3aR,4S,6aS)-2-{[2-chloro-4-(trifluoromethyl)phenyl]sulfonyl}-N-[5-(trifluoromethyl)pyridin-2-yl]octahydrocyclopenta[c]pyrrol-4-amine] | 2.98 µM
14 | CC(C)C(C(=O)N[C@H]1CC[C@@H]2CN(CCCC(c3ccc(F)cc3)c3ccc(F)cc3)C[C@@H]21)c1ccccc1 (stereo partly drawn) [Example 118, N-{(3aR,4S,6aS)-2-[4,4-bis(4-fluorophenyl)butyl]octahydrocyclopenta[c]pyrrol-4-yl}-3-methyl-2-phenylbutanamide] | 1.04 µM
15 | FC(F)(F)c1cccc(CN2C[C@@H]3CC[C@H](N(C4CC4)C4CC4)[C@@H]3C2)c1 (relative stereo) [Example 196, (3aS*,4S*,6aR*)-N,N-dicyclopropyl-2-[3-(trifluoromethyl)benzyl]octahydrocyclopenta[c]pyrrol-4-amine] | 3.18 µM

The next lines start with the values.

Row | IC50 | Structure (SMILES)
16 | 12.8 µM | CC(C)(C)[C@H](NS(C)(=O)=O)C(=O)N[C@H]1CC[C@@H]2CN(Cc3ccc(C(F)(F)F)cc3)C[C@@H]21 [Example 520, 3-methyl-N^2-(methylsulfonyl)-N^1-{(3aR,4S,6aS)-2-[4-(trifluoromethyl)benzyl]octahydrocyclopenta[c]pyrrol-4-yl}-L-valinamide]
17 | 10.3 µM | CCC[C@H](NC)C(=O)N[C@H]1CC[C@@H]2CN(C(=O)c3cccc(C(F)(F)F)c3)C[C@@H]21 [Example 554, N^2-methyl-N^1-{(3aR,4S,6aS)-2-[3-(trifluoromethyl)benzoyl]octahydrocyclopenta[c]pyrrol-4-yl}-L-norvalinamide]
18 | 3.7 µM | CC(C)N[C@H]1CC[C@@H]2CN(S(=O)(=O)c3ccc(C(F)(F)F)cc3Cl)C[C@@H]21 [Example 284, (3aR,4S,6aS)-2-{[2-chloro-4-(trifluoromethyl)phenyl]sulfonyl}-N-isopropyloctahydrocyclopenta[c]pyrrol-4-amine]
19 | 1.49 µM | CC(C)N[C@@H](CC1CCCCC1)C(=O)N[C@H]1CC[C@@H]2CN(S(=O)(=O)c3ccc(C(F)(F)F)cc3)C[C@@H]21 [Example 485, 3-cyclohexyl-N^2-isopropyl-N^1-((3aR,4S,6aS)-2-{[4-(trifluoromethyl)phenyl]sulfonyl}octahydrocyclopenta[c]pyrrol-4-yl)-L-alaninamide]
20 | 3.51 µM | CC(C)C[C@H](N)C(=O)N[C@H]1CC[C@H]2CN(Cc3cccc(C(F)(F)F)c3)C[C@H]21 (stereo in doubt) [Example 158, N^1-{(3aS*,4S*,6aR*)-2-[3-(trifluoromethyl)benzyl]octahydrocyclopenta[c]pyrrol-4-yl}-L-leucinamide]
21 | 4.44 µM | CC(C)C[C@H](NS(=O)(=O)c1ccccc1)C(=O)N[C@@H]1CC[C@H]2CN(Cc3cccc(C(F)(F)F)c3)C[C@H]21 [Example 523, N^2-(phenylsulfonyl)-N^1-{(3aS,4R,6aR)-2-[3-(trifluoromethyl)benzyl]octahydrocyclopenta[c]pyrrol-4-yl}-L-leucinamide]
22 | 2.64 µM | CC(C)C[C@H](NC(=O)C(C)(C)C)C(=O)N[C@@H]1CC[C@H]2CN(Cc3cccc(C(F)(F)F)c3)C[C@H]21 [Example 177, N^2-(2,2-dimethylpropanoyl)-N^1-{(3aS,4R,6aR)-2-[3-(trifluoromethyl)benzyl]octahydrocyclopenta[c]pyrrol-4-yl}-L-leucinamide]
